Data reported in patent US6455506B1, “Lyxofuranosyl benzimidazoles as antiviral agents” (SmithKline Beecham Corporation, priority 1997, dated 2002).
“And” between values parts separate entries of the source, which are not always exact repeats. Equal entries are not always repeated. Where two headings read alike, the source gives them in different places.

Assays:
HCMV [1] = test: HCMV plaque reduction assay (Towne strain) in HFF cells; assay type: cell-based, Human cytomegalovirus
Experimental: (§1) Stock HCMV was prepared by infecting HFF cells at a multiplicity of infection (m.o.i.) of <0.01 plaque-forming units (p.f.u.) per cell as detailed previously (see Turk, S. R.; Shipman, C., Jr.; Nassiri, M. R.; Genzingler, G.; Krawczyk, S. H.; Townsend, L. B.; Drach, J. C. Pyrrolo[2,3-d]pyrimidine Nucleosides as Inhibitors of Human Cytomegalovirus, Antimicrob. Agents Chemother. 1987, 31, 544-550). High titer HSV-1 stocks were prepared by infecting KB cells (ATCC) at an m.o.i. of <0.1 also as detailed previously (see Turk, S. R.; Shipman, C., Jr.; Nassiri, M. R.; Genzingler, G.; Krawczyk, S. H.; Townsend, L. B.; Drach, J. C. Pyrrolo[2,3-d]pyrimidine Nucleosides as Inhibitors of Human Cytomegalovirus, Antimicrob. Agents Chemother. 1987, 31, 544-550). Virus titers were determined using monolayer cultures of HFF cells for HCMV and monolayer cultures of BSC-1 cells for HSV-1 as described earlier (see Prichard, M. N.; Turk, S. R.; Coleman, L. A.; Engelhardt, S. L.; Shipman, C., Jr.; Drach, J. C. A Microtiter Virus Yield Reduction Assay for the Evaluation of Antiviral Compounds Against Human Cytomegalovirus and Herpes Simplex Virus. J. Virol. Methods 1990, 28, 101-106). Briefly, HFF or BSC-1 cells were planted as described above in 96-well cluster dishes and incubated overnight at 37° C. The next day cultures were inoculated with HCMV or HSV-1 and serially diluted 1:3 across the remaining eleven columns of the 96-well plate. After virus adsorption the inoculum was replaced with fresh medium and cultures were incubated for seven days for HCMV, two or three days for HSV-1. Plaques were enumerated under 20-fold magnification in wells having the dilution which gave 5 to 20 plaques per well. Virus titers were calculated according to the following formula: Titer (p.f.u./mL)=number of plaques×5×3^n; where n represents the nth dilution of the virus used to infect the well in which plaques were enumerated.
(§2) HFF cells in 24-well cluster dishes were infected with approximately 100 p.f.u. of HCMV per cm^2 cell sheet using the procedures detailed above. Following virus adsorption, compounds dissolved in growth medium were added to duplicate wells in four to eight selected concentrations. After incubation at 37° C. for 7 to 10 days, cell sheets were fixed, stained with crystal violet and microscopic plaques enumerated as described above.
(§3) Dose-response relationships were constructed by linearly regressing the percent inhibition of parameters derived in the preceding sections against log drug concentrations. Fifty-percent inhibitory concentrations (IC50's) or IC90's were calculated from the regression lines. Samples containing positive controls (acyclovir for HSV-1, ganciclovir for HCMV, and 2-acetylpyridine thiosemicarbazone for cytotoxicity) were used in all assays.

HSV-1 = HSV-1 ELISA in BSC-1 cells; assay type: cell-based, herpes simplex virus 1; conditions: Human alphaherpesvirus 1, quadruplicate wells, read-out: HSV-1 ELISA 50% Inhibitory Concentration (IC50)
Experimental: An ELISA was employed (see Prichard, M. N.; Shipman, C., Jr. A Three Dimensional Model to Analyze Drug-Drug Interactions. Antiviral Res. 1990, 14, 181-206) to detect HSV-1. Ninety-six-well cluster dishes were planted with 10,000 BSC-1 cells per well in 200 μL per well of MEM(E) plus 10% calf serum. After overnight incubation at 37° C., selected drug concentrations in quadruplicate and HSV-1 at a concentration of 100 p.f.u./well were added. Following a 3-day incubation at 37° C., medium was removed, plates were blocked, rinsed, and horse radish peroxidase conjugated rabbit anti-HSV-1 antibody was added. Following removal of the antibody containing solution, plates were rinsed, and then developed by adding 150 μL per well of a solution of tetramethylbenzidine as substrate. The reaction was stopped with H2SO4 and absorbance was read at 450 and 570 nm. Drug effects were calculated as a percentage of the reduction in absorbance in the presence of each drug concentration compared to absorbance obtained with virus in the absence of drug.
as §3

[2] = Visual cytotoxicity in stationary HFF cells; assay type: cell-based; conditions: human
Experimental: (§4) Two different assays were used for routine cytotoxicity testing. (i) Cytotoxicity produced in stationary HFF cells was determined by microscopic inspection of cells not affected by the virus used in plaque assays (see Turk, S. R.; Shipman, C., Jr.; Nassiri, M. R.; Genzingler, G.; Krawczyk, S. H.; Townsend, L. B.; Drach, J. C. Pyrrolo[2,3-]pyrimidine Nucleosides as Inhibitors of Human Cytomegalovirus, Antimicrob. Agents Chemother. 1987, 31, 544-550). (ii) The effect of compounds during two population doublings of KB cells was determined by crystal violet staining and spectrophotometric quantitation of dye eluted from stained cells as described earlier (see Prichard, M. N.; Prichard, L. E., Baguley, W. A.; Nassiri, M. R.; Shipman, C., Jr. Three-Dimensional Analysis of the Synergistic Cytotoxicity of Ganciclovir and Zidovudine. Antiviral Res. 1991, 35, 1060-1065). Briefly, 96-well cluster dishes were planted with KB cells at 3000-5000 cells per well. After overnight incubation at 37° C., test compound was added in quadruplicate at six to eight concentrations. Plates were incubated at 37° C. for 48 hours in a CO2 incubator, rinsed, fixed with 95% ethanol, and stained with 0.1% crystal violet. Acidified ethanol was added and plates read at 570 nm in a spectrophotometer designed to read 96-well ELISA assay plates.
as §3

[3] = Inhibition of KB cell growth (crystal violet); assay type: cell-based; conditions: human
Experimental: as §4, §3

HCMV [4] = test: HCMV yield reduction assay (Towne strain) in HFF cells; assay type: cell-based, Human cytomegalovirus
Experimental: as §1
HFF cells were planted as described above in 96-well cluster dishes, incubated overnight, medium removed and the cultures were inoculated with HCMV at a m.o.i. of 0.5 to 1 p.f.u. per cell as reported elsewhere (see Prichard, M. N.; Turk, S. R.; Coleman, L. A.; Engelhardt, S. L.; Shipman, C., Jr.; Drach, J. C. A Microtiter Virus Yield Reduction Assay for the Evaluation of Antiviral Compounds Against Human Cytomegalovirus and Herpes Simplex Virus. J. Virol. Methods 1990, 28, 101-106). After virus adsorption, inoculum was replaced with 0.2 mL of fresh medium containing test compounds. The first row of 12 wells was left undisturbed and served as virus controls. Each well in the second row received an additional 0.1 mL of medium with test compound at three times the desired final concentration. The contents of the 12 wells were mixed by repeated pipetting and then serially diluted 1:3 along the remaining wells. In this manner, six compounds could be tested in duplicate on a single plate with concentrations from […]. Plates were incubated at 37° C. for seven days, subjected to one cycle of freezing and thawing; aliquots from each of the eight wells of a given column were transferred to the first column of a fresh 96-well monolayer culture of HFF cells. Contents were mixed and serially diluted 1:3 across the remaining eleven columns of the secondary plate. Each column of the original primary plate was diluted across a separate plate in this manner. Cultures were incubated, plaques were enumerated, and titers calculated as described above.
as §3

HCMV Strain AD169 = test: HCMV plaque reduction assay, strain AD169; assay type: cell-based, Human cytomegalovirus; conditions: Human betaherpesvirus 5, Table 3, read-out: HCMV Strain AD169 plaque 50% Inhibitory Concentration (IC50)
Experimental: as §2, §3

[5] = Human betaherpesvirus 5, Table 2, HFF cells, duplicate, read-out: HCMV plaque 50% Inhibitory Concentration (IC50)
[6] = HFF cells, scored at time of HCMV plaque enumeration, read-out: Cytotoxicity visual (IC50)
[7] = KB cells, KB cell growth, 48 hours, quadruplicate, read-out: Cytotoxicity growth (IC50)
[8] = Human betaherpesvirus 5, Table 2, HFF cells, duplicate, read-out: HCMV yield 90% Inhibitory Concentration (IC90)
[9] = Human betaherpesvirus 5, HFF, Table 3, same data as Table 2, read-out: HCMV Strain Towne plaque 50% Inhibitory Concentration (IC50)
[10] = Human betaherpesvirus 5, HFF, Table 3, same data as Table 2, read-out: HCMV Strain Towne yield 90% Inhibitory Concentration (IC90)

IC50 (HCMV [1]; [5]) [µM] | IC50 (HSV-1) [µM] | melting point | IC90 (HCMV [4]; [8]) [µM] | IC50 (HCMV [1]; [9]) [µM] | IC90 (HCMV [4]; [10]) [µM] | IC50 (HCMV Strain AD169) [µM] | Structure (SMILES) | IC50 [2, 6] [µM] | IC50 at 48 h [3, 7] [µM] | IC50 [2] [µM] | IC50 at 48 h [3] [µM]
> 100 | > 100 | 126 to 128 °C and 131 to 132 °C |  |  |  |  | CNc1nc2cc(Cl)c(Cl)cc2n1[C@@H]1O[C@@H](CO)[C@@H](O)[C@H]1O [Compound 6a, 5,6-Dichloro-1-(α-L-lyxofuranosyl)-2-(methylamino)benzimidazole] | > 100 | > 100 |  | 
39 ± 26 |  |  |  |  |  |  | O=C(O)P(=O)(O)O [foscarnet, reference compound] | > 100 |  |  | 
> 100 | > 100 |  | > 100 |  |  |  | OC[C@H]1O[C@H](n2c(=S)[nH]c3cc(Cl)c(Cl)cc32)[C@@H](O)[C@H]1O [Compound 9b, 5,6-Dichloro-1-(α-D-lyxofuranosyl)benzimidazol-2-thione] | > 100 | > 100 |  | 
60 | > 100 |  | 17 | 60 | 17 | 32 | CC(C)Nc1nc2cc(Cl)c(Cl)cc2n1[C@H]1O[C@H](CO)[C@H](O)[C@@H]1O [Compound 7b, 5,6-Dichloro-2-isopropylamino-1-(α-D-lyxofuranosyl)benzimidazole] | > 100 | > 100 |  | 
18 | 90 |  | > 100 | 18 | > 100 | 9 | OC[C@H]1O[C@H](n2c(Cl)nc3cc(Cl)c(Cl)cc32)[C@@H](O)[C@H]1O [Compound 4b, 1-(α-D-Lyxofuranosyl)-2,5,6-trichlorobenzimidazole] |  |  | > 100 | > 100
> 100 | > 100 |  |  |  |  |  | CSc1nc2cc(Cl)c(Cl)cc2n1[C@@H]1O[C@@H](CO)[C@@H](O)[C@H]1O [Compound 12a, 5,6-Dichloro-1-(α-L-lyxofuranosyl)-2-(methylthio)benzimidazole] | > 100 | > 100 |  | 
> 100 | > 100 |  | > 100 |  |  |  | CNc1nc2cc(Cl)c(Cl)cc2n1[C@H]1O[C@H](CO)[C@H](O)[C@@H]1O [Compound 6b, 5,6-Dichloro-1-(α-D-lyxofuranosyl)-2-(methylamino)benzimidazole] | > 100 | > 100 |  | 
 |  | 183 to 185 °C and 184 to 186 °C |  |  |  |  | OC[C@@H]1O[C@@H](n2c(NC3CC3)nc3cc(Cl)c(Cl)cc32)[C@H](O)[C@@H]1O [Compound 8a, 2-Cyclopropylamino-5,6-dichloro-1-(α-L-lyxofuranosyl)benzimidazole] |  |  |  | 
> 100 | > 100 |  | 19 | > 100 | 19 | 11 | CC(C)Nc1nc2cc(Cl)c(Cl)cc2n1[C@@H]1O[C@@H](CO)[C@@H](O)[C@H]1O [Compound 7a, 5,6-Dichloro-2-isopropylamino-1-(α-L-lyxofuranosyl)benzimidazole] | > 100 | > 100 |  | 
> 100 | > 100 | 234 to 236 °C | > 100 |  |  |  | OC[C@@H]1O[C@@H](n2c(=S)[nH]c3cc(Cl)c(Cl)cc32)[C@H](O)[C@@H]1O [Compound 9a, 5,6-Dichloro-1-(α-L-lyxofuranosyl)benzimidazol-2-thione] | > 100 | > 100 |  | 
6 | 50 |  | 65 | 6 | 65 | 4.2 | OC[C@H]1O[C@H](n2c(Br)nc3cc(Cl)c(Cl)cc32)[C@@H](O)[C@H]1O [Compound 5b, 2-Bromo-5,6-dichloro-1-(α-D-lyxofuranosyl)benzimidazole] | > 100 | > 100 |  | 
18 | > 100 |  | 3.4 | 18 | 3.4 | 2.6 | OC[C@@H]1O[C@@H](n2c(Cl)nc3cc(Cl)c(Cl)cc32)[C@H](O)[C@@H]1O [Compound 4a, 1-(α-L-Lyxofuranosyl)-2,5,6-trichlorobenzimidazole] |  |  | 190 | > 100
> 100 | > 100 |  | > 100 |  |  |  | CSc1nc2cc(Cl)c(Cl)cc2n1[C@H]1O[C@H](CO)[C@H](O)[C@@H]1O [Compound 12b, 5,6-Dichloro-1(α-D-lyxofuranosyl)-2-(methylthio)benzimidazole] | > 100 | > 100 |  | 
